Data from patent publication US10100050B2 (CHIESI FARMACEUTICI S.P.A., priority 2015, dated 2018).

Columns and labels:
[1] = target: T1, p38alpha (Homo sapiens, UniProt Q16539); test: P38alpha enzyme inhibition assay (Alphascreen kinase activity assay); type: biochemical; details: IC50 classes; 2 hours preincubation at 25° C., 250 μM ATP; read-out: p38α inhibition
T1 construct: purchased Invitrogen PV3304
In short: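 p38alpha with 0.3 μg/ml ATF-2 fusion protein in HEPES pH 7.5 buffer (10 mM MgCl2, 2 mM DTT, 1% DMSO); compounds preincubated 2 h at 25° C, then 250 μM ATP added for 1 h at 25° C. Phospho-ATF2 detected by AlphaScreen luminescence with anti-phospho-ATF2 antibody; IC50 from concentration-response curves.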

[2] = system: Peripheral Blood Mononuclear Cells (PBMCs); test: LPS-stimulated PBMC TNFα release assay; type: cell-based; details: IC50 classes; human PBMC, LPS 10 ng/ml, 18 h; read-out: LPS-stimulated PBMC TNFα release inhibition
In short: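 Human PBMCs from healthy donors, adhered 3 h in serum-free RPMI, received compound for 1 h in 1% FBS medium before 10 ng/ml LPS for 18 h. Supernatant TNFα was measured by MSD; IC50 from percentage inhibition of control release, at least three separate experiments.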

[3] = system: BEAS-2B cells; test: TNFα-stimulated BEAS-2B IL-8 release assay; type: cell-based; details: Homo sapiens, IC50 classes, TNF-α 10 ng/ml, 18 h, read-out: TNFα-stimulated BEAS-2B IL-8 release inhibition
In short: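 BEAS-2B cells at 80-90% confluence were pre-incubated 1 h with p38 inhibitors, then stimulated 18 h at 37 °C with TNF-α (10 ng/ml). Supernatant IL-8 was measured by ELISA. IC50 was taken from sigmoidal variable-slope fits of % inhibition of control release.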

T1 sequence (Q16539 whole entry): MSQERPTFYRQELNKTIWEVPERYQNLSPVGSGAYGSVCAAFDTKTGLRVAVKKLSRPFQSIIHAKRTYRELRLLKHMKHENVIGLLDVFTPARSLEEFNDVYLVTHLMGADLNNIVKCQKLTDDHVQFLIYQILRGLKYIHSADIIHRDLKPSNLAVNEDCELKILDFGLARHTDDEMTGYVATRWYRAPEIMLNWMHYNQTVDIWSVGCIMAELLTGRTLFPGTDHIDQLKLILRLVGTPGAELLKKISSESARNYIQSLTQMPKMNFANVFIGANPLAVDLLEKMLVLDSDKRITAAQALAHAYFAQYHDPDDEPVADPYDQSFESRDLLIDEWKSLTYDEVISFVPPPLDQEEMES

| SMILES | IC50 [1] | IC50 [2] | IC50 [3] |
| --- | --- | --- | --- |
| CN1CC[C@H]1c1nnc2ccc(O[C@@H]3CC[C@H](NC(=O)Nc4cc(NS(C)(=O)=O)cc(C(C)(C)C)c4)c4ccccc43)cn12 [Example 63, N-[3-tert-Butyl-5-(3-{(1S,4R)-4-[3-((S)-1-methyl-azetidin-2-yl)-[1,2,4]triazolo[4,3-a]pyridin-6-yloxy]-1,2,3,4-tetrahydro-naphthalen-1-yl}-ureido)-phenyl]-methanesulfonamide] | 1 to 10 nM | > 5 nM | > 1 nM |
| COc1c(NC(C)=O)cc(C(C)(C)C)cc1NC(=O)N[C@H]1CC[C@@H](Oc2ccc3nnc([C@]4(C)CCCN4C)n3c2)c2ccccc21 [Example 8, N-[5-tert-Butyl-3-(3-{(1S,4R)-4-[3-((S)-1,2-dimethyl-pyrrolidin-2-yl)-[1,2,4]triazolo[4,3-a]pyridin-6-yloxy]-1,2,3,4-tetrahydro-naphthalen-1-yl}-ureido)-2-methoxy-phenyl]-acetamide] | 1 to 10 nM | < 1 nM | < 0.3 nM |
| COc1c(CO)cc(C(C)(C)C)cc1NC(=O)N[C@H]1CC[C@@H](Oc2ccc3nnc([C@@H]4CCCCN4C)n3c2)c2ccccc21 [Example 5, 1-(5-tert-Butyl-3-hydroxymethyl-2-methoxy-phenyl)-3-{(1S,4R)-4-[3-((S)-1-methyl-piperidin-2-yl)-[1,2,4]triazolo[4,3-a]pyridin-6-yloxy]-1,2,3,4-tetrahydro-naphthalen-1-yl}-urea] | 1 to 10 nM | < 1 nM | < 0.3 nM |
| C[C@H]1CCCCN1c1nnc2ccc(O[C@@H]3CC[C@H](NC(=O)Nc4cc(C(C)(C)C)ccc4CN4CCOCC4)c4ccccc43)cn12 [Example 74, 1-(5-tert-Butyl-2-morpholin-4-ylmethyl-phenyl)-3-{(1S,4R)-4-[3-((S)-2-methyl-piperidin-1-yl)-[1,2,4]triazolo[4,3-a]pyridin-6-yloxy]-1,2,3,4-tetrahydro-naphthalen-1-yl}-urea] | 1 to 10 nM | > 5 nM | 0.3 to 1 nM |
| COc1c(NC(C)=O)cc(C(C)(C)C)cc1NC(=O)N[C@H]1CC[C@@H](Oc2ccc3nnc([C@@H]4CCCCN4C)n3c2)c2ccccc21 [Example 12, N-[5-tert-Butyl-2-methoxy-3-(3-{(1S,4R)-4-[3-((S)-1-methyl-piperidin-2-yl)-[1,2,4]triazolo[4,3-a]pyridin-6-yloxy]-1,2,3,4-tetrahydro-naphthalen-1-yl}-ureido)-phenyl]-acetamide] | < 1 nM | 1 to 5 nM | 0.3 to 1 nM |
| CN1CCC[C@H]1c1nnc2ccc(O[C@@H]3CC[C@H](NC(=O)Nc4cc(NS(C)(=O)=O)cc(C(C)(C)C)c4)c4ccccc43)cn12 [Example 21] | < 1 nM | 1 to 5 nM | 0.3 to 1 nM |

Further lines, with some results ahead:

| IC50 [1] | SMILES | IC50 [2] | IC50 [3] |
| --- | --- | --- | --- |
| < 1 nM | CN1CCC[C@@]1(C)c1nnc2ccc(O[C@@H]3CC[C@H](NC(=O)Nc4cc(CO)cc(C(C)(C)C)c4)c4ccccc43)cn12 [Example 49, 1-(3-tert-Butyl-5-hydroxymethyl-phenyl)-3-{(1S,4R)-4-[3-((S)-1,2-dimethyl-pyrrolidin-2-yl)-[1,2,4]triazolo[4,3-a]pyridin-6-yloxy]-1,2,3,4-tetrahydro-naphthalen-1-yl}-urea] | < 1 nM | < 0.3 nM |
| < 1 nM | CC(=O)OCc1cc(NC(=O)N[C@H]2CC[C@@H](Oc3ccc4nnc([C@]5(C)CCCN5C)n4c3)c3ccccc32)cc(C(C)(C)C)c1 [Example 44, Acetic acid 3-tert-butyl-5-(3-{(1S,4R)-4-[3-((S)-1,2-dimethyl-pyrrolidin-2-yl)-[1,2,4]triazolo[4,3-a]pyridin-6-yloxy]-1,2,3,4-tetrahydro-naphthalen-1-yl}-ureido)-benzyl ester] | < 1 nM | < 0.3 nM |
| < 1 nM | CN(C)Cc1cc(NC(=O)N[C@H]2CC[C@@H](Oc3ccc4nnc([C@]5(C)CCCN5C)n4c3)c3ccccc32)cc(C(C)(C)C)c1 [Example 65, 1-(3-tert-Butyl-5-dimethylaminomethyl-phenyl)-3-{(1S,4R)-4-[3-((S)-1,2-dimethyl-pyrrolidin-2-yl)-[1,2,4]triazolo[4,3-a]pyridin-6-yloxy]-1,2,3,4-tetrahydro-naphthalen-1-yl}-urea] | 1 to 5 nM | 0.3 to 1 nM |
| < 1 nM | C[C@H]1CCCCN1c1nnc2ccc(O[C@@H]3CC[C@H](NC(=O)Nc4cc(CN(C)C)cc(C(C)(C)C)c4)c4ccccc43)cn12 [Example 66, 1-(3-tert-Butyl-5-dimethylaminomethyl-phenyl)-3-{(1S,4R)-4-[3-((S)-2-methyl-piperidin-1-yl)-[1,2,4]triazolo[4,3-a]pyridin-6-yloxy]-1,2,3,4-tetrahydro-naphthalen-1-yl}-urea] | 1 to 5 nM | < 0.3 nM |
| < 1 nM | CN1CCC[C@H]1c1nnc2ccc(O[C@@H]3CC[C@H](NC(=O)Nc4cc(NS(=O)(=O)C5CC5)cc(C(C)(C)C)c4)c4ccccc43)cn12 [Example 36, Cyclopropanesulfonic acid [3-tert-butyl-5-(3-{(1S,4R)-4-[3-((S)-1-methyl-pyrrolidin-2-yl)-[1,2,4]triazolo[4,3-a]pyridin-6-yloxy]-1,2,3,4-tetrahydro-naphthalen-1-yl}-ureido)-phenyl]-amide] | 1 to 5 nM | 0.3 to 1 nM |
